From ChEMBL document CHEMBL5042477, “Potent Cyclic Peptide Inhibitors of FXIIa Discovered by mRNA Display with Genetic Code Reprogramming” (J Med Chem, 2021)
Where a SMILES comes first, the peptide text is derived from it. Bridges are numbered along the chain shown (N, C = ends). [ ]: non-standard residue; d: D form. Phe(2-CF3) = N[C@@H](Cc1ccccc1C(F)(F)F)C(=O)O; Phe(4-CN) = N#Cc1ccc(C[C@H](N)C(=O)O)cc1; Phe(2-CN) = N#Cc1ccccc1C[C@H](N)C(=O)O; Phe(4-F) = N[C@@H](Cc1ccc(F)cc1)C(=O)O; hTyr = N[C@@H](CCc1ccc(O)cc1)C(=O)O

Molecular target: T1, Coagulation factor XII (Homo sapiens, UniProt P00748)
T1 sequence (P00748 whole entry): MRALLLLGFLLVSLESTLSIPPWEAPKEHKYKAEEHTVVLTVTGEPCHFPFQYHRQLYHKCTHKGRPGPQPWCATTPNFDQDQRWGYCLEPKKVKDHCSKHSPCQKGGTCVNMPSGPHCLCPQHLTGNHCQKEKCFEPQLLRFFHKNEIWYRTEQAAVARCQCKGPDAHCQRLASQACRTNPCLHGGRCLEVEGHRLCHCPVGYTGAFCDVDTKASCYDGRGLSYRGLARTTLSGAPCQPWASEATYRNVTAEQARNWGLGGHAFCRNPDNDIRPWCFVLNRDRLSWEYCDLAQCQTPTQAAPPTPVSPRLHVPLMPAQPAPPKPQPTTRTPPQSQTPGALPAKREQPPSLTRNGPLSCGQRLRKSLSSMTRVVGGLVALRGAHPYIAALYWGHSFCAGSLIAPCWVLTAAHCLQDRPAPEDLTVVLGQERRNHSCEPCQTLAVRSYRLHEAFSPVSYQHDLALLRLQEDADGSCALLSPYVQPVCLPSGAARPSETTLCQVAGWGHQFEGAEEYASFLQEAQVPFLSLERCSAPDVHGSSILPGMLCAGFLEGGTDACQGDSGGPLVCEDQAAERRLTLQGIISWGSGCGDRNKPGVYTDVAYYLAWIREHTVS
Test: Inhibition of human factor 12a using H-D-Pro-Phe-Arg-p-nitroanilide as chromogenic substrate assessed as liberation of p-nitroaniline measured every 5 mins for 60 min by multimode plate reader analysis

CC(C)C[C@@H]1NC(=O)[C@H](Cc2ccccc2C(F)(F)F)NC(=O)CSC[C@@H](C(N)=O)NC(=O)CNC(=O)CNC(=O)[C@H](CCCNC(=N)N)NC(=O)[C@H](CC(=O)O)NC(=O)[C@H](CCCCN)NC(=O)[C@@H]2CCCN2C(=O)[C@H](CCCNC(=N)N)NC(=O)[C@H](Cc2ccccc2)NC(=O)[C@H](CCCNC(=N)N)NC1=O ({CH2CO}-[Phe(2-CF3)]LRFRPKDRGGC-NH2; thioether N-12)
IC50: 120 µM

CC(C)C[C@@H]1NC(=O)[C@H](Cc2ccc(O)cc2)NC(=O)CSC[C@@H](C(N)=O)NC(=O)CNC(=O)CNC(=O)[C@H](CCCNC(=N)N)NC(=O)[C@H](CC(=O)O)NC(=O)[C@H](CCCCN)NC(=O)[C@H](C)NC(=O)[C@H](CCCNC(=N)N)NC(=O)[C@H](Cc2ccccc2)NC(=O)[C@H](CCCNC(=N)N)NC1=O ({CH2CO}-YLRFRAKDRGGC-NH2; thioether N-12)
IC50: 0.26 µM

CC(C)C[C@@H]1NC(=O)[C@H](Cc2ccc(O)cc2)NC(=O)CSC[C@@H](C(N)=O)NC(=O)CNC(=O)CNC(=O)[C@H](CCCNC(=N)N)NC(=O)[C@H](CC(=O)O)NC(=O)[C@H](CCCCN)NC(=O)[C@@H]2CCCN2C(=O)[C@H](CCCNC(=N)N)NC(=O)[C@H](Cc2ccc(F)cc2)NC(=O)[C@H](CCCNC(=N)N)NC1=O ({CH2CO}-YLR[Phe(4-F)]RPKDRGGC-NH2; thioether N-12)
IC50: 0.046 µM

CC(C)C[C@@H]1NC(=O)[C@H](Cc2ccc(F)cc2)NC(=O)CSC[C@@H](C(N)=O)NC(=O)CNC(=O)CNC(=O)[C@H](CCCNC(=N)N)NC(=O)[C@H](CC(=O)O)NC(=O)[C@H](CCCCN)NC(=O)[C@@H]2CCCN2C(=O)[C@H](CCCNC(=N)N)NC(=O)[C@H](Cc2ccccc2)NC(=O)[C@H](CCCNC(=N)N)NC1=O ({CH2CO}-[Phe(4-F)]LRFRPKDRGGC-NH2; thioether N-12)
IC50: 0.47 µM

CC(C)C[C@@H]1NC(=O)[C@H](CCc2ccc(O)cc2)NC(=O)CSC[C@@H](C(N)=O)NC(=O)CNC(=O)CNC(=O)[C@H](CCCNC(=N)N)NC(=O)[C@H](CC(=O)O)NC(=O)[C@H](CCCCN)NC(=O)[C@@H]2CCCN2C(=O)[C@H](CCCNC(=N)N)NC(=O)[C@H](Cc2ccccc2)NC(=O)[C@H](CCCNC(=N)N)NC1=O ({CH2CO}-[hTyr]LRFRPKDRGGC-NH2; thioether N-12)
IC50: 370 µM

CC(C)C[C@@H]1NC(=O)[C@H](C)NC(=O)CSC[C@@H](C(N)=O)NC(=O)CNC(=O)CNC(=O)[C@H](CCCNC(=N)N)NC(=O)[C@H](CC(=O)O)NC(=O)[C@H](CCCCN)NC(=O)[C@@H]2CCCN2C(=O)[C@H](CCCNC(=N)N)NC(=O)[C@H](Cc2ccccc2)NC(=O)[C@H](CCCNC(=N)N)NC1=O ({CH2CO}-ALRFRPKDRGGC-NH2; thioether N-12)
IC50: 500 µM

CC(C)C[C@@H]1NC(=O)[C@H](Cc2ccc(C#N)cc2)NC(=O)CSC[C@@H](C(N)=O)NC(=O)CNC(=O)CNC(=O)[C@H](CCCNC(=N)N)NC(=O)[C@H](CC(=O)O)NC(=O)[C@H](CCCCN)NC(=O)[C@@H]2CCCN2C(=O)[C@H](CCCNC(=N)N)NC(=O)[C@H](Cc2ccccc2)NC(=O)[C@H](CCCNC(=N)N)NC1=O ({CH2CO}-[Phe(4-CN)]LRFRPKDRGGC-NH2; thioether N-12)
IC50: 8.1 µM

CC(C)C[C@@H]1NC(=O)[C@H](Cc2ccccc2C#N)NC(=O)CSC[C@@H](C(N)=O)NC(=O)CNC(=O)CNC(=O)[C@H](CCCNC(=N)N)NC(=O)[C@H](CC(=O)O)NC(=O)[C@H](CCCCN)NC(=O)[C@@H]2CCCN2C(=O)[C@H](CCCNC(=N)N)NC(=O)[C@H](Cc2ccccc2)NC(=O)[C@H](CCCNC(=N)N)NC1=O ({CH2CO}-[Phe(2-CN)]LRFRPKDRGGC-NH2; thioether N-12)
IC50: 14 µM

CC(C)C[C@@H]1NC(=O)[C@H](Cc2ccc(O)cc2)NC(=O)CSC[C@@H](C(N)=O)NC(=O)CNC(=O)CNC(=O)[C@H](CCCNC(=N)N)NC(=O)[C@H](C)NC(=O)[C@H](CCCCN)NC(=O)[C@@H]2CCCN2C(=O)[C@H](CCCNC(=N)N)NC(=O)[C@H](Cc2ccccc2)NC(=O)[C@H](CCCNC(=N)N)NC1=O ({CH2CO}-YLRFRPKARGGC-NH2; thioether N-12)
IC50: 0.05 µM
